Experimental data: patent publication US11992473B2, “Compositions and methods for diagnosis and treatment of conditions related to the quality of aging and longevity” (Epitracker, Inc., priority 2018, dated 2024)

Columns and labels:
Format in all cases: cell-based, human
Dermal fibroblasts = assay: BioMAP Diversity PLUS HDF3CGF system (wound healing and matrix/tissue remodeling)
Protocol: (§1) This study examined activities of small molecules discovered in dolphin serum that had protective profiles against diseases of aging which can impact quality of life and longevity. These molecules were tested across 12 human primary cell-based systems as part of DiscoverX's BioMAP Diversity Plus program. These systems are designed to model complex human tissue and disease biology of the vasculature, skin, lung, and inflammatory tissues. Quantitative measurements of biomarker activities across this broad panel, along with comparative analysis of biological activities of known bioactive agents were used to predict and compare the efficacy and function of the four compounds. Compounds were tested at four concentrations (740 nm and 2.2, 6.7 and 20 μM).
(§2) BioMAP panels consist of human primary cell-based systems designed to model different aspects of the human body in an in vitro format. The 12 systems in the Diversity PLUS panel allow test agent characterization in an unbiased way across a broad set of systems modeling various human disease states. BioMAP systems are constructed with one or more primary cell types from healthy human donors, with stimuli (such as cytokines or growth factors) added to capture relevant signaling networks that naturally occur in human tissue or pathological conditions. Vascular biology is modeled in both a Th1 (3C system) and a Th2 (4H system) inflammatory environment, as well as in a Th1 inflammatory state specific to arterial smooth muscle cells (CASM3C system). Additional systems recapitulate aspects of the systemic immune response including monocyte-driven Th1 inflammation (LPS system) or T cell stimulation (SAg system), chronic Th1 inflammation driven by macrophage activation (lMphg system) and the T cell-dependent activation of B cells that occurs in germinal centers (BT system). The BE3C system (Th1) and the BF4T system (Th2) represent airway inflammation of the lung, while the MyoF system models myofibroblast-lung tissue remodeling. Lastly, skin biology is addressed in the KF3CT system modeling Th1 cutaneous inflammation and the HDF3CGF system modeling wound healing.
(§3) Each test agent generates a signature BioMAP profile that is created from the changes in protein biomarker readouts within individual system environments. Biomarker readouts (7-17 per system) are selected for therapeutic and biological relevance, are predictive for disease outcomes or specific drug effects and are validated using agents with known mechanism of action (MoA). Each readout is measured quantitatively by immune-based methods that detect protein (e.g., ELISA) or functional assays that measure proliferation and viability. BioMAP readouts are diverse and include cell surface receptors, cytokines, chemokines, matrix molecules and enzymes.
(§4) The Diversity PLUS panel allows test agent characterization in an unbiased way across a broad set of systems modeling various human disease states. These systems are designed to model complex human tissue and disease biology of the vasculature, skin, lung, and inflammatory tissues.
(§5) BioMAP systems are constructed with one or more primary cell types from healthy human donors, with stimuli (such as cytokines or growth factors) added to capture relevant signaling networks that naturally occur in human tissue or pathological conditions. Vascular biology is modeled in both a Th1 (3C system) and a Th2 (4H system) inflammatory environment, as well as in a Th1 inflammatory state specific to arterial smooth muscle cells (CASM3C system). Additional systems recapitulate aspects of the systemic immune response including monocyte-driven Th1 inflammation (LPS system) or T cell stimulation (SAg system), chronic Th1 inflammation driven by macrophage activation (lMphg system) and the T cell-dependent activation of B cells that occurs in germinal centers (BT system).

[1] = test system: Venular endothelial cells, peripheral blood mononuclear cells; assay: BioMAP Diversity PLUS LPS system (Th1 type chronic inflammation, monocyte activation); details: for Significant log10 reduction compared to nontreated controls: Secreted prostaglandin E2 (PGE2): LPS system
Protocol: as §1, §2, §3, §4, §5

[2] = test system: Venular endothelial cells, peripheral blood mononuclear cells; assay: BioMAP Diversity PLUS SAg system (T cell stimulation, Th1 type chronic inflammation); details: human cell system mimicking T-cell driven chronic inflammation and autoimmune diseases; concentrations ranging from 740 nm to 6.7 μM (FIG. 2)
Protocol: as §1, §2
as §3, with “enzymes. In total, the Diversity PLUS panel contains 148 biomarker readouts that capture biological changes that occur within the physiological context of the particular BioMAP system. Specific BioMAP activities have been correlated to in vivo biology, and multiparameter BioMAP profiles have been used to distinguish compounds based on MoA and target selectivity across diverse physiological systems.” for “enzymes.”
(§6) The Diversity PLUS panel allows test agent characterization in an unbiased way across a broad set of systems modeling various human disease states. These systems are designed to model complex human tissue and disease biology of the vasculature, skin, lung, and inflammatory tissues. Quantitative measurements of 148 biomarker activities across this broad panel, along with comparative analysis of biological activities from known bioactive agents, were used to predict and compare the efficacy and function of each selected compound at four concentrations (740 nm and 2.2, 6.7 and 20 μM). […]

[3] = test system: Coronary artery smooth muscle cells; assay: BioMAP Diversity PLUS CASM3C system (Th1 type vascular inflammation); details: CASM3C system
Protocol: as §1, §2, §3, §4, §5

Lung fibroblasts = assay: BioMAP Diversity PLUS MyoF system (myofibroblast differentiation and tissue remodeling)
Protocol: as §1, §2
as §3, with “enzymes. In total, the Diversity PLUS panel contains 148 biomarker readouts that capture biological changes that occur within the physiological context of the particular BioMAP system. Specific BioMAP activities have been correlated to in vivo biology, and multiparameter BioMAP profiles have been used to distinguish compounds based on MoA and target selectivity across diverse physiological systems.” for “enzymes.”
as §6

[4] = test system: Bronchial epithelial cells, dermal fibroblasts; assay: BioMAP Diversity PLUS BF4T system (Th2 type lung inflammation)
Protocol: as §1, §2
as §3, with “enzymes. In total, the Diversity PLUS panel contains 148 biomarker readouts that capture biological changes that occur within the physiological context of the particular BioMAP system. Specific BioMAP activities have been correlated to in vivo biology, and multiparameter BioMAP profiles have been used to distinguish compounds based on MoA and target selectivity across diverse physiological systems.” for “enzymes.”
as §6

[5] = test system: Peripheral blood mononuclear cells, B cells; assay: BioMAP Diversity PLUS BT system (T cell dependent B cell activation); details: BT system
Protocol: as §1, §2, §3, §4, §5

[6] = test system: Macrophages, venular endothelial cells; assay: BioMAP Diversity PLUS lMphg system (Th1 type chronic inflammation, macrophage activation); details: /Mphg system
Protocol: as §1, §2
as §3, with “enzymes. In total, the Diversity PLUS panel contains 148 biomarker readouts that capture biological changes that occur within the physiological context of the particular BioMAP system. Specific BioMAP activities have been correlated to in vivo biology, and multiparameter BioMAP profiles have been used to distinguish compounds based on MoA and target selectivity across diverse physiological systems.” for “enzymes.”
as §6

[7] = test system: Bronchial epithelial cells; assay: BioMAP Diversity PLUS BE3C system (Th1 type lung inflammation)
Protocol: as §1, §2
as §3, with “enzymes. In total, the Diversity PLUS panel contains 148 biomarker readouts that capture biological changes that occur within the physiological context of the particular BioMAP system. Specific BioMAP activities have been correlated to in vivo biology, and multiparameter BioMAP profiles have been used to distinguish compounds based on MoA and target selectivity across diverse physiological systems.” for “enzymes.”
as §6

## CS(=O)(=O)CC[C@H](N)C(=O)O [Methionine sulfone]
Dermal fibroblasts; HDF3CGF system, 6.7 μM
  Significant log10 reduction compared to nontreated controls: Monocyte chemoattractant protein 1 (MCP-1): −0.24 log10
Dermal fibroblasts; human cell system mimicking wound healing, remodeling, fibrosis and chronic inflammation (FIG. 7)
  decorin: inhibitory activity
[1]; 0.7 μM
  Significant log10 reduction compared to nontreated controls: Secreted prostaglandin E2 (PGE2): −0.12 log10
[1]; 2.2 μM
  Significant log10 reduction compared to nontreated controls: Secreted prostaglandin E2 (PGE2): −0.08 log10
[1]; human cell system mimicking T-cell and monocyte driven chronic inflammation and cardiovascular diseases (FIG. 4)
  secretion of prostaglandin E2 (PGE2): lowered
[2]
  T cell proliferation: decreased
[3]; 0.7 μM
  Significant log10 reduction compared to nontreated controls: Vascular cell adhesion molecule 1 (VCAM-1): −0.10 log10
[3]; 2.2 μM
  Significant log10 reduction compared to nontreated controls: Vascular cell adhesion molecule 1 (VCAM-1): −0.09 log10
Lung fibroblasts; 6.7 μM
  Significant log10 reduction compared to nontreated controls: Decorin: −0.07 log10
Lung fibroblasts; 20.0 μM
  Significant log10 reduction compared to nontreated controls: Decorin: −0.11 log10

## CCCCCCC=CCCCCCCCCC(=O)O [10-heptadecanoate]
Dermal fibroblasts; HDF3CGF system, 6.7 μM
  Significant log10 reduction compared to nontreated controls: Macrophage colony-stimulating factor (M-CSF): −0.1 log10
  Significant log10 reduction compared to nontreated controls: Vascular cell adhesion molecule 1 (VCAM-1): −0.17 log10
[3]; 2.2 μM
  Significant log10 reduction compared to nontreated controls: Serum amyloid A: −0.13 log10
[4]; 2.2 μM
  Significant log10 reduction compared to nontreated controls: Eotaxin 3 (CCL26): −0.10 log10
[4]; 6.7 μM
  Significant log10 reduction compared to nontreated controls: Eotaxin 3 (CCL26): −0.13 log10
[4]; 20.0 μM
  Significant log10 reduction compared to nontreated controls: Eotaxin 3 (CCL26): −0.31 log10

## CCCCC/C=C\C/C=C\C/C=C\C/C=C\CCCC(=O)O[C@H](COC(=O)CCCCCCCCCCCCCCC)COP(=O)([O-])OCC[N+](C)(C)C [1-palmitoyl-2-arachidonoyl-GPC]
Dermal fibroblasts; HDF3CGF system, 20.0 μM
  Significant log10 reduction compared to nontreated controls: Plasminogen activation inhibitor 1 (PAI-1): −0.11 log10
[5]; 2.2 μM
  Significant log10 reduction compared to nontreated controls: Secreted interleukin 17F (IL-17F): −0.12 log10
[5]; 20.0 μM
  Significant log10 reduction compared to nontreated controls: Secreted interleukin 2 (IL-2): −0.27 log10
  Significant log10 reduction compared to nontreated controls: Secreted interleukin 17F (IL-17F): −0.24 log10
  Significant log10 reduction compared to nontreated controls: Secreted tumor necrosis factor alpha (TNFα): −0.16 log10
[6]; 2.2 μM
  Significant log10 reduction compared to nontreated controls: Monocyte chemoattractant protein 1 (MCP-1): −0.12 log10
[6]; 6.7 μM
  Significant log10 reduction compared to nontreated controls: Monocyte chemoattractant protein 1 (MCP-1): −0.13 log10
  Significant log10 reduction compared to nontreated controls: Secreted interleukin 10 (IL-10): −0.18 log10
[6]; 20.0 μM
  Significant log10 reduction compared to nontreated controls: CD69: −0.11 log10
  Significant log10 reduction compared to nontreated controls: Monocyte chemoattractant protein 1 (MCP-1): −0.18 log10
Lung fibroblasts; 0.7 μM
  Significant log10 reduction compared to nontreated controls: Alpha smooth muscle actin (αSMA): −0.07 log10
Lung fibroblasts; 2.2 μM
  Significant log10 reduction compared to nontreated controls: Alpha smooth muscle actin (αSMA): −0.09 log10
Lung fibroblasts; 6.7 μM
  Significant log10 reduction compared to nontreated controls: Alpha smooth muscle actin (αSMA): −0.10 log10
Lung fibroblasts; 20.0 μM
  Significant log10 reduction compared to nontreated controls: Alpha smooth muscle actin (αSMA): −0.18 log10
[4]; 2.2 μM
  Significant log10 reduction compared to nontreated controls: Eotaxin 3 (CCL26): −0.11 log10
[4]; 6.7 μM
  Significant log10 reduction compared to nontreated controls: Eotaxin 3 (CCL26): −0.24 log10
  Significant log10 reduction compared to nontreated controls: Plasminogen activation inhibitor 1 (PAI-1): −0.07 log10
[4]; 20.0 μM
  Significant log10 reduction compared to nontreated controls: Eotaxin 3 (CCL26): −0.58 log10
  Significant log10 reduction compared to nontreated controls: Plasminogen activation inhibitor 1 (PAI-1): −0.19 log10
[7]; 6.7 μM
  Significant log10 reduction compared to nontreated controls: Keratin 8/18: −0.08 log10
[7]; 20.0 μM
  Significant log10 reduction compared to nontreated controls: Interleukin 8 (IL-8)/CXCL8: −0.12 log10
  Significant log10 reduction compared to nontreated controls: Matrix metalloproteinase 9 (MMP-9): −0.11 log10
  Significant log10 reduction compared to nontreated controls: Plasminogen activation inhibitor 1 (PAI-1): −0.12 log10
